Data: the NIST ThermoML archive (doi:10.1016/j.jct.2018.12.019)

Key:
[1] = excess molar enthalpy (molar enthalpy of mixing); xn = mol fraction of the nth substance listed; conditions: 298.15 K, 98 kPa, Liquid, Calvet calorimetry
[2] = xn = mol fraction of the nth substance listed; conditions: 98 kPa, Liquid; for speed of sound: Frequency=3 MHz, Single path-length method; for mass density: Vibrating tube method

Cn1ccnc1 [1-methylimidazole] + CCCO
[1]
Conditions | excess molar enthalpy [kcal/mol]
x1 = 0.05 | -0.032
x1 = 0.101 | -0.0624
x1 = 0.193 | -0.112
x1 = 0.2923 | -0.151
x1 = 0.3845 | -0.179
x1 = 0.4985 | -0.188
x1 = 0.5962 | -0.179
x1 = 0.7004 | -0.147
x1 = 0.8026 | -0.106
x1 = 0.8897 | -0.0564
x1 = 0.9463 | -0.0311
x1 = 1 | 0

[2]
Conditions | mass density, 288.15 K [kg/m3] | mass density, 298.15 K [kg/m3] | mass density, 308.15 K [kg/m3] | mass density, 318.15 K [kg/m3] | mass density, 328.15 K [kg/m3] | speed of sound, 288.15 K [m/s] | speed of sound, 298.15 K [m/s] | speed of sound, 308.15 K [m/s] | speed of sound, 318.15 K [m/s] | speed of sound, 328.15 K [m/s]
x1 = 0.0507 | 820.94 | 812.86 | 804.67 | 796.32 | 787.79 | 1261.9 | 1227.2 | 1192.8 | 1158.7 | 1124.9
x1 = 0.1042 | 834.73 | 826.55 | 818.26 | 809.85 | 801.26 | 1284.5 | 1249.6 | 1214.9 | 1180.6 | 1146.6
x1 = 0.2018 | 859.55 | 851.23 | 842.82 | 834.3 | 825.64 | 1324.6 | 1289.5 | 1254.5 | 1219.9 | 1185.7
x1 = 0.301 | 884.11 | 875.67 | 867.16 | 858.56 | 849.84 | 1364.2 | 1329 | 1293.8 | 1259 | 1224.5
x1 = 0.4047 | 909.21 | 900.68 | 892.08 | 883.41 | 874.64 | 1405.6 | 1370.1 | 1334.7 | 1299.7 | 1265
x1 = 0.5076 | 933.32 | 924.7 | 916.03 | 907.3 | 898.5 | 1446.2 | 1410.4 | 1374.6 | 1339.2 | 1304.2
x1 = 0.6006 | 954.58 | 945.89 | 937.17 | 928.39 | 919.55 | 1483.1 | 1447 | 1410.8 | 1375.1 | 1339.7
x1 = 0.7029 | 977.37 | 968.62 | 959.84 | 951.01 | 942.13 | 1523.8 | 1487.2 | 1450.6 | 1414.4 | 1378.5
x1 = 0.8027 | 999.22 | 990.42 | 981.59 | 972.72 | 963.81 | 1564.5 | 1527.3 | 1490.2 | 1453.5 | 1417.2
x1 = 0.903 | 1020.12 | 1011.3 | 1002.44 | 993.55 | 984.62 | 1602 | 1564.6 | 1527.1 | 1490.1 | 1453.4
x1 = 0.9532 | 1030.34 | 1021.51 | 1012.64 | 1003.74 | 994.81 | 1620.1 | 1582.6 | 1545.1 | 1507.9 | 1471.1
x1 = 1 | 1039.36 | 1030.52 | 1021.66 | 1012.76 | 1003.83 | 1634.1 | 1596.5 | 1559 | 1521.8 | 1485

Cn1ccnc1 [1-methylimidazole] + CCO
[1]
Conditions | excess molar enthalpy [kcal/mol]
x1 = 0.0523 | -0.0449
x1 = 0.1012 | -0.0853
x1 = 0.2013 | -0.15
x1 = 0.3057 | -0.194
x1 = 0.4037 | -0.23
x1 = 0.5087 | -0.239
x1 = 0.5987 | -0.199
x1 = 0.7146 | -0.152
x1 = 0.8003 | -0.105
x1 = 0.8861 | -0.0619
x1 = 0.9463 | -0.0344
x1 = 1 | 0

[2]
Conditions | mass density, 288.15 K [kg/m3] | mass density, 298.15 K [kg/m3] | mass density, 308.15 K [kg/m3] | mass density, 318.15 K [kg/m3] | mass density, 328.15 K [kg/m3] | speed of sound, 288.15 K [m/s] | speed of sound, 298.15 K [m/s] | speed of sound, 308.15 K [m/s] | speed of sound, 318.15 K [m/s] | speed of sound, 328.15 K [m/s]
x1 = 0.0511 | 812.59 | 803.97 | 795.24 | 786.37 | 777.3 | 1210.6 | 1176.2 | 1141.9 | 1108 | 1074.3
x1 = 0.1012 | 829.84 | 821.16 | 812.37 | 803.49 | 794.35 | 1240.8 | 1206.2 | 1171.7 | 1137.5 | 1103.7
x1 = 0.2006 | 861.64 | 852.87 | 844 | 835.02 | 825.9 | 1296.9 | 1261.9 | 1227 | 1192.5 | 1158.3
x1 = 0.3012 | 891.28 | 882.45 | 873.53 | 864.53 | 855.41 | 1350 | 1314.7 | 1279.5 | 1244.6 | 1210.1
x1 = 0.3955 | 916.81 | 907.94 | 899 | 889.99 | 880.88 | 1396.8 | 1361.2 | 1325.7 | 1290.5 | 1255.7
x1 = 0.5 | 942.71 | 933.82 | 924.87 | 915.86 | 906.77 | 1445.7 | 1409.8 | 1373.8 | 1338.3 | 1303
x1 = 0.5994 | 965.25 | 956.36 | 947.41 | 938.4 | 929.34 | 1489.5 | 1453 | 1416.7 | 1380.7 | 1345.1
x1 = 0.7066 | 987.5 | 978.61 | 969.67 | 960.68 | 951.65 | 1533 | 1496.1 | 1459.3 | 1423 | 1386.9
x1 = 0.8063 | 1006.58 | 997.7 | 988.78 | 979.82 | 970.81 | 1570.7 | 1533.5 | 1496.3 | 1459.6 | 1423.3
x1 = 0.902 | 1023.35 | 1014.49 | 1005.59 | 996.65 | 987.68 | 1603.2 | 1565.8 | 1528.4 | 1491.4 | 1454.8
x1 = 0.9505 | 1031.47 | 1022.63 | 1013.75 | 1004.83 | 995.88 | 1619 | 1581.5 | 1544 | 1507 | 1470.2
x1 = 1 | 1039.36 | 1030.52 | 1021.66 | 1012.76 | 1003.83 | 1634.1 | 1596.5 | 1559 | 1521.8 | 1485
